In US11766470B2, “Manufacture, formulation and dosing of apraglutide” (VectivBio AG, priority 2020, dated 2023):
Square brackets hold non-standard residues; d marks the D form. Peptide text beside a SMILES is read from it. ξ: configuration not given here. Ile(3ξ) = CCC(C)[C@H](N)C(=O)O; Thr(3ξ) = CC(O)[C@H](N)C(=O)O; Nle = CCCC[C@H](N)C(=O)O

How the values were obtained:
[1] = Solubility, pH and isoelectric point of the peptide; format: physicochemical; conditions: purified water
[2] = test system: patients with SBS-IF; test: Safety assessments (adverse events) in Phase 2 SBS-IF trial (Example 5)
Protocol: In Part A, patients were treated with 5 mg apraglutide or placebo once weekly for 4 weeks. After a washout period of 6-10 weeks, the alternate treatment was given. Part A was followed by a second washout period of 6-10 weeks before patients entered Part B. Part B was an open-label dosing regimen with 10 mg apraglutide given once weekly for 4 weeks. The additional open-label treatment period (Part B) was included to investigate the safety and tolerability of 10 mg dosing. The procedures during each treatment period were consistent. The trial drug was provided as a freeze-dried powder for reconstitution and was administered as subcutaneous injections in the abdominal area.
Safety assessments were performed for each treatment period and included observation for injection site reactions, vital signs, blood samples, electrocardiogram (ECG), dipstick urinalysis, body weight and liver enzymes. […] Additionally, liver enzymes were measured prior to each drug administration.

[3] = whole trial, incl. placebo periods

## CCCC[C@H](NC(=O)[C@H](CCC(=O)O)NC(=O)[C@H](CC(=O)O)NC(=O)[C@H](CO)NC(=O)[C@H](Cc1ccccc1)NC(=O)[C@H](CO)NC(=O)CNC(=O)[C@H](CC(=O)O)NC(=O)CNC(=O)[C@@H](N)Cc1c[nH]cn1)C(=O)N[C@H](Cc1ccccc1)C(=O)N[C@H](C(=O)N[C@H](C(=O)N[C@@H](CC(C)C)C(=O)N[C@@H](CC(=O)O)C(=O)N[C@@H](CC(C)C)C(=O)N[C@@H](CC(C)C)C(=O)N[C@@H](C)C(=O)N[C@@H](C)C(=O)N[C@@H](CCCNC(=N)N)C(=O)N[C@@H](CC(=O)O)C(=O)N[C@@H](Cc1ccccc1)C(=O)N[C@H](C(=O)N[C@@H](CC(N)=O)C(=O)N[C@@H](Cc1c[nH]c2ccccc12)C(=O)N[C@@H](CC(C)C)C(=O)N[C@H](C(=O)N[C@@H](CCC(N)=O)C(=O)N[C@H](C(=O)N[C@@H](CCCCN)C(=O)N[C@H](C(=O)N[C@H](C(=O)N[C@@H](CC(=O)O)C(N)=O)C(C)O)C(C)CC)C(C)O)C(C)CC)C(C)CC)C(C)CC)C(C)O (stereo partly drawn) [apraglutide, L-histidyl-glycyl-L-aspartyl-glycyl-L-seryl-L-phenylalanyl-L-seryl-L-aspartyl-L-glutamyl-L-norleucyl-D-phenylalanyl-L-threonyl-Lisoleucyl-L-leucyl-L-aspartyl-L-leucyl-L-leucyl-L-alanyl-L-alanyl-L-arginyl-L-aspartyl-L-phenylalanyl-L-isoleucyl-L-asparaginyl-Ltryptophanyl-L-leucyl-L-isoleucyl-L-glutaminyl-L-threonyl-L-lysyl-L-isoleucyl-L-threonyl-Laspartic acid amide] (H-HGDGSFSDE[Nle][dF][Thr(3ξ)][Ile(3ξ)]LDLLAARDF[Ile(3ξ)]NWL[Ile(3ξ)]Q[Thr(3ξ)]K[Ile(3ξ)][Thr(3ξ)]D-NH2)
[1]
  solubility: > 100 mg/mL
[2]; 5 mg (N = 8)
  Any related adverse events, number of patients: 8
  Decreased appetite, number of patients: 1
  Edema, number of patients: 2
  Gastrointestinal stoma complication, number of patients: 5
  Gastrointestinal stoma output abnormal, number of patients: 4
  Gastrointestinal stoma output decreased, number of patients: 3
  Increased weight, number of patients: 1
  Polyuria, number of patients: 4
  Stoma complication, number of patients: 6
  Thirst decreased, number of patients: 3
[2]; 5 mg dose group
  Injection site reactions, number of patients: one
[2]; 10 mg (N = 8)
  Any related adverse events, number of patients: 8
  Decreased appetite, number of patients: 2
  Edema, number of patients: 2
  Gastrointestinal stoma complication, number of patients: 5
  Gastrointestinal stoma output abnormal, number of patients: 4
  Gastrointestinal stoma output decreased, number of patients: 6
  Increased weight, number of patients: 2
  Polyuria, number of patients: 6
  Stoma complication, number of patients: 6
  Thirst decreased, number of patients: 4
[2]; 10 mg dose group
  Injection site reactions, number of patients: three
[2]; 5 and 10 mg once weekly for four weeks
  Safety and tolerability in words: well tolerated and safe
[2]; Total, all periods (N = 8)
  Any related adverse events, number of patients: 8
  Decreased appetite, number of patients: 3
  Edema, number of patients: 4
  Gastrointestinal stoma complication, number of patients: 5
  Gastrointestinal stoma output abnormal, number of patients: 5
  Gastrointestinal stoma output decreased, number of patients: 6
  Increased weight, number of patients: 3
  Polyuria, number of patients: 7
  Stoma complication, number of patients: 6
  Thirst decreased, number of patients: 5
[2]; whole trial
  Deaths: no deaths
  Injection site reactions, number of patients: Three
  Serious adverse events related to the trial drug: None of these were considered related to the trial drug
[2]; [3]
  Patients reporting serious adverse events: 5 patients
  Serious adverse events, number of cases: 8 cases
